These results are taken from US20250270170A1, “2,3-DIMETHOXY-5-METHYL-1,4-BENZOQUINONE ALKYL ALCOHOL DERIVATIVE AND USE THEREOF” (BEIJING ANJIANXI BIO-MEDICAL TECHNOLOGY CO., LTD., priority 2021, published 2025).

One experiment relates to A549 cells. As to the kind of experiment: Flow cytometry for cell cycle detection, A549. It counts as cell-based, human. On the procedure: (1) Cells were inoculated in a 6-well plate. When about 50% of the cells were adherent and fused, the compound of formula (I) at a concentration of 0 μM, 10 μM, 30 μM, and 90 μM were added, respectively. The plate was placed in an incubator at 37° C. with 5% CO2 to continue culturing, and three time points were set, which were 24 h, 48 h and 72 h, respectively.
(2) After reaching the designated time point, the cell culture plate was taken out from the incubator, and placed in a biological safety cabinet. A 4 ml centrifuge tube was taken and marked. The supernatant in each well was pipetted out and added to the corresponding 4 ml centrifuge tube. The cells were gently washed with PBS, and the PBS was added to the corresponding centrifuge tube. An appropriate amount of trypsin was added to each well to digest the cells. When the cells were digested to a moderate degree, the old culture medium from the centrifuge tube was added to the corresponding well. The cells were gently pipetted with apipette to form a single-cell suspension, which was pipetted back into the original centrifuge tube. The tube was immediately centrifuged at 1500 rpm for 5 minutes. Then, the supernatant was discarded and the precipitate was retained.
(3) 2 ml of pre-chilled PBS was added to the centrifuge tube, and centrifuged again at 1500 rpm for 5 minutes. The supernatant was discarded, and the cell debris was removed.
(4) 1 ml of 75% ethanol was added while pipetting the cells, to make the cells appear as single as possible. Then, the cells were fixed at 4° C. overnight or stored at −20° C. for long-term storage (can be stored for 1 week).
(5) The fixed cells were taken out, and centrifuged at 1000 rpm for 5 minutes. The ethanol was discarded, and pre-chilled PBS was added to wash the cells. Then, the cells were centrifuged at 1000 rpm for 5 min to remove the residual ethanol on the cells.
(6) A cell cycle detection kit from Wuhan Promoter Biology Co., Ltd. was used. 100 μl of RNaseA was added, and incubated in a 37° C. water bath for 30 minutes.
(7) 400 μl of PI was added and mixed well, and incubated at 4° C. in dark for 30 minutes.
(8) The cell cycle was detected by upflow cytometry.
In general terms: In flow cytometry, cells or beads pass a laser one at a time.

Experiment [1] deals with cisplatin-induced acute kidney damage in mice. The experiment is described as follows: Example 11: serum creatinine (Cre) in cisplatin-induced acute kidney damage model. It counts as in vivo, C57BL/6J mice. The settings on record: for Serum creatinine (Cre) level after the assay, x (mean): group mean; for Serum creatinine (Cre) level after the assay, x (mean) / Serum creatinine (Cre) level after the assay: cisplatin model; for Serum creatinine (Cre) level after the assay: individual animals No. 1-7. On the procedure: 42 male C57BL/6J mice (age: 6 to 8 weeks, body weight 18-20 g, certificate number: 11400700238365) were purchased from Si Pei Fu (Beijing) Biotechnology Co., Ltd., and raised in an SPF-grade animal room of the Institute of Materia Medica, Chinese Academy of Medical Sciences, at a temperature of 20 to 25° C., a relative humidity of 40% to 70%, and a cycle of 12 hours of light and 12 hours of dark. The animals had free access to water and food. After 3 days of normal feeding, mice with good physical conditions after the veterinary examination were selected for this assay. Before grouping, a marker was used to mark on the base of the animals' tail. After grouping, each animal was marked with an ear cutout (7 mice in each group).
Assay animals: 42 7-week-old male C57 mice were used for animal testing after an adaptive feeding.
Group 1: blank control group;
The preparation of the R01 formulation administration test solution was the same as that in Example 5: an appropriate amount of the R01 formulation was weighed according to the three dosages set in the assay, respectively, and an appropriate volume of 0.5% CMC-Na aqueous solution was added. The mixture was vortexed and sonicated until mixed evenly, to give the administration test solutions with concentrations of […], respectively, which were ready for use.
Animal testing period: 7 days (excluding adaptive feeding), hereinafter referred to as: D1-D7.
1. The first group was a solvent control group: N=7, all mice were males (the same below); • a) 0.5% solution of sodium carboxymethyl cellulose was gavagely administered from D1 to D6 (twice a day for each animal, with an interval of 8 hours between the morning and the afternoon). • b) Physiological saline was intraperitoneally injected in one-time on D4. • c) On D7, blood was collected from the orbit for euthanasia (300 ul of serum was extracted), the left kidney was fixed in formaldehyde, and the right kidney was preserved in liquid nitrogen (WB study may be carried out).
1) The concentrations of urea nitrogen and creatinine in peripheral blood serum were tested.
The body weight of the animals when being grouped for administration in each group was recorded. The body weight and the kidney weight at the end of the assay were also recorded, and the kidney coefficient was calculated. The creatinine and urea nitrogen values in the blood samples sent for testing were recorded. The kidneys were stained with HE and PAS, and the slides were scanned. A report was issued after the pathological analysis.
The assay data were calculated and processed statistically using Microsoft Office Excel 2007 software. Unless otherwise specified, the data were expressed as mean±standard error (Mean±SE), and t-test was used for comparison between two groups.

Values joined by “and” are separate entries in the source; they are usually repeats but may differ in a detail not shown here. Equal values may be shown once.

On to `COC1=C(OC)C(=O)C(CCCCCCCCCCOC(=O)Cc2c(C)n(C(=O)c3ccc(Cl)cc3)c3ccc(OC)cc23)=C(C)C1=O` [compound of formula (I)], for which the “proportion of S phase of cells” value is listed as 22.94% with A549 cells (10 μM, 24 h); 24.73% in the experiment on A549 cells (10 μM, 48 h); 19.77% in the experiment on A549 cells (10 μM, 72 h); 12.52% in the experiment on A549 cells (30 μM, 24 h); 15.96% with A549 cells (30 μM, 48 h); 10.63% in the experiment with A549 cells (30 μM, 72 h). The “proportion of S phase of cells” value with A549 cells (90 μM, 24 h) is reported as 3.92%; with A549 cells (90 μM, 48 h), 4.37%; in the experiment on A549 cells (90 μM, 72 h), 5.42%. The serum creatinine value entry in experiment [1] (cisplatin 10 mg/kg alone (vs blank, P<0.01) or with amifostine 50 mg/kg i.p. / R01 6, 18, 36 mg/kg bid) is reported as “equivalent to that of the blank control group”. In addition, the “Serum creatinine (Cre) level after the assay, x (mean)” value in experiment [1] (R01 6 mg/kg) was found to be 18.4 mg/dL; in experiment [1] (R01 18 mg/kg), 15.4 mg/dL; in experiment [1] (R01 36 mg/kg), 15.3 mg/dL. Moreover, the “Serum creatinine (Cre) level after the assay” value is 20 mg/dl (2×) and 23 mg/dl and 26 mg/dl and 17 mg/dl and 18 mg/dl and 5 mg/dl in experiment [1] (R01 6 mg/kg, listed as R01, 6 mg/kg); 15 mg/dl (2×) and 12 mg/dl (2×) and 17 mg/dl and 16 mg/dl and 21 mg/dl in experiment [1] (R01 18 mg/kg, listed as R01, 18 mg/kg); 15 mg/dl (3×) and 13 mg/dl and 17 mg/dl and 16 mg/dl (2×) in experiment [1] (R01 36 mg/kg, listed as R01, 36 mg/kg).
